Measured values from patent US11180771B2 (priority 2016, dated 2021).

Tests used:
[1] = system: weeds (all species): Echinochloa species, Schoenoplectus mucronatus, Cypres difformis, Heteranthera limosa, Monochoria vaginalis; experiment: Preflood oxyfluorfen rate test in water-seeded production system (Table 5), percent weeds; assay type: in vivo; conditions: treatments before flooding; mutant lines containing ROXY
Description: Oxyfluorfen resistant rice lines containing mutant allele ROXY, including 17Y3000, 14G3, 14G4, and 15G4, and the oxyfluorfen susceptible parent M-206 were tested at different rates of oxyfluorfen applied preflood in a water-seeded production system to assess seedling vigor, percent weeds, and yield as shown in Table 5. The design was a randomized complete block with 4 replication and 4 rates of oxyfluorfen (GoalTender®) herbicide. The plot size was 10×20 ft. The percent weeds (all species) were visually determined at 50 days after seeding in the plots and the plots were harvested at maturity. The weed species included a mixture of predominant weeds present including barnyard and late watergrass Echinochloa species, rice field bulrush Schoenoplectus mucronatus, small flower umbrella Cypres difformis, ducksalad Heteranthera limosa, and monochoria Monochoria vaginalis.

[2] = system: weeds (all species): Echinochloa species, Schoenoplectus mucronatus, Cypres difformis, Heteranthera limosa, Monochoria vaginalis; experiment: Drill-seeded herbicide treatment test (Table 6), percent weeds; assay type: in vivo; conditions: including combinations with Prowl and Clincher, lines with mutant ROXY allele
Description: Oxyfluorfen resistant rice lines containing mutant allele ROXY, including 17Y3000, 14G3, 14G4, and 15G4, and the oxyfluorfen susceptible parent M-206 without ROXY were tested by applying oxyfluorfen at different rates and times, and in combination with other herbicides in a drill-seeded production system and evaluated for percent weeds and yield as shown in Table 6. Preflush applications were made directly after drill-seeding just before the first irrigation of the basin and preflood applications occurred just before a permanent flood of basin at about 25 days after seeding. The design was a randomized complete block with 2 replication and treatments of oxyfluorfen (GoalTender®) and combinations of oxyfluorfen with the herbicides Prowl® and Clincher®. The active ingredient of Prowl® is pendimethalin (N-(1-ethylpropyl)-3,4-dimethyl-2,6-dinitrobenzenamine). Clincher® is an herbicide for selective postemergence grass weed control in rice with the active ingredient cyhalofop (2-[4-(4-cyano-2-fluorophenoxy) phenoxy] propanoic acid, butyl ester, (R)). The plot size was 6.4×20 ft. The percent weeds (all species) were visually determined at 50 days after seeding in the plots and the plots were harvested at maturity. […]

In the case of `CCOc1cc(Oc2ccc(C(F)(F)F)cc2Cl)ccc1[N+](=O)[O-]` [Oxyfluorfen, oxyfluorfen], the “weed control” value [1] was “high levels of weed control” and the “weed control” value [2] was “high levels of weed control”.
